Key:
HeLa cells = assay: Autophagy induction (RFP-GFP-LC3); assay type: cell-based; settings: 2 hours treatment
Procedure: Autophagy induction after compound treatment for 2 hours is assessed by the presence of red and green punctate inside the cells. The HeLa cells were transfected with RFP-GFP-LC3 plasmid 48 hours prior to drug treatments. After drug treatment for 2 hours the cells are fixed and imaged. LC3 is a protein that is expressed on autophagosomes and is seen as green puncta. When the autophagosome and lysosome fuse to form autolysosomes, the acidic pH inside of it causes degradation of GFP protein and only red puncta are visible (FIG. 26).

[1] = system: 5FU resistant (5FUR) colon cancer cell lines; assay: Cell viability of 5FU resistant colon cancer cell lines; assay type: cell-based; settings: combination of 5FU
MRP2 = MRP2 expression in 5FU-R colon cancer cells; assay type: cell-based; settings: SW-5FUR colon cancer cell lines
Procedure: FIG. 43: UroA/UAS03 down regulate drug transporters. (A) Expression of MRP2 is measured by real time PCR upon treating with indicated doses of UroA or UAS03 in SW-5FUR colon cancer cell lines. (B) MRP2 activity is measured using CDCFDA (diacetate ester of 5(6)-carboxy-2′,7′-dichlorofluorescein) transporter assay in SW-FUR colon cancer cell lines upon treating with UroA/USA03.
This could result in increase in intracellular drug concentration leading to increase in cell death/decreased proliferation of drug resistant cancer cells upon treatment with 5FU and UroA/UAS03.

HT29 cells = assay: RNA-Seq analysis of HT29 cells; assay type: cell-based, human; settings: 50 μM, 24 h
Procedure: RNA sequencing: Total RNA was isolated from HT29 cells treated with vehicle and UroA (50 μM) (n=3) for 24 h and RNA was isolated using Trizol based lysis followed by Qiagen RNeasy kits. The isolated RNA was checked for integrity (RIN>9.5) using the Agilent Bioanalyzer 2100 system (Agilent Technologies, Santa Clara, CA) and quantified using a Qubit fluorometric assay (Thermo Fisher Scientific, Waltham, MA). Poly-A enriched […] libraries were prepared following Illumina's TruSeq Stranded mRNA LT library preparation protocol (Illumina Inc., San Diego, CA) using 1 μg of total RNA. All 15 samples were individually barcoded and quantitated with the KAPA Library Quantitation Kit for Illumina Platforms (Kapa Biosystems, Wilmington, MA) in conjunction with an Agilent Bioanalyzer DNA 1000 analysis (Agilent Technologies, Santa Clara, CA) for fragment size determination. The average fragment size was approximately 300 bp. […] of the pooled libraries with 1% PhiX spike-in was loaded on one NextSeq 500/550 75 cycle High Output Kit v2 sequencing flow cell and sequenced on the Illumina NextSeq 500 sequencer. The quality of the 1×75 bp sequences was checked using […] Quality Control Tool for High Throughput Sequence Data”). Trimming was not necessary with the median quality score above 30 (error probability=0.001 or 1 base call in 1,000 is predicted to be incorrect) across the entire length of the read and the lower quantile above a score of 20 (error probability=0.01) at the end of the read where there is an expected decrease in quality. The raw reads for each sample were directly aligned to the Homo sapiens (hg38) reference genome assembly (hg38.fa) using tophat2 (version 2.0.13) (KIM et al. (2013) “TopHat2: accurate alignment of transcriptomes in the presence of insertions, deletions and gene fusions” Genome biology, Vol. 14, Article […]), generating alignment files in bam format. Optional parameters include-no-coverage-search and -library-type fr-firststrand. […] On average, 26 million reads were aligned per sample with a mean alignment rate of 97 percent. […]

Compound | autophagy induction (HeLa cells) | cell viability of 5FUR colon cancer cell lines, combination with 5FU [1] | expression of drug transporters (MRP2) (MRP2) | Cyp1A1 expression (RNA-Seq) (HT29 cells) | claudin 4 (Cldn4) expression (RNA-Seq) (HT29 cells) | heme oxygenase 1 (HMOX1 or HO1) expression (RNA-Seq) (HT29 cells)
Oc1ccc2c(c1)COc1cc(O)ccc1-2 [UAS03, 6H-benzo[c]chromene-3,8-diol] | induce autophagy | reduced cell viability | reduce the expression | – | – | –
O=c1oc2cc(O)ccc2c2ccc(O)cc12 [UroA, 3,8-dihydroxy-6H-dibenzo[b,d]pyran-6-one] | induce autophagy | reduced cell viability | reduce the expression | among the top 3 UroA upregulated genes | upregulated | increased the expression

Source: US12377069B2, “Compounds, compositions, methods of using, and methods for preparing compounds” (UNIVERSITY OF LOUISVILLE RESEARCH FOUNDATION, INC., priority 2018, dated 2025)
